Data reported in patent US20020111360A1, “Quinazoline formulations and therapeutic use thereof” (PARKER HUGHES INSTITUTE, priority 1999, published 2002).
Counter-ions that a name gives are not always drawn.

Assays:
Type in all cases: physicochemical
[1] = Solubilization of WHI-P131 in microemulsions; conditions: microemulsion formulation vs free base in water
From the text: A series of ternary phase diagrams were constructed at room temperature, and several microemulsions within the single phase microemulsion region were examined for their capacity to solubilize WHI-P131. […] In this phase diagram, it can be seen that microemulsions containing up to 30% of Captex 300 were possible. These microemulsions were transparent and tolerated dilution very well when mixed with aqueous phases. In WHI-P131-containing microemulsions, the drug was first solubilized in the microemulsions chosen from the one phase region of the phase diagram with mild heating, followed by dilution with water or buffer solution at room temperature.
The microemulsion composition ME1 depicted in Table 9 was used in pharmacokinetic studies and biological activity assays. This microemulsion was prepared by first solubilizing WHI-P131 in composition A in the ternary phase diagram, followed by a dilution with water (1:9). […] ME2 was a microemulsion composition obtained from a separate phase diagram not shown. […] These microemulsions can readily be filtered through 0.2 μm filter, and stored at room temperature.

[2] = Solubility of WHI-P131 free base and chloride salt in various liquids
Protocol: The solubility of WHI-P131 free base was measured in water, propylene glycol, polyethylene glycols (PEGs), ethanol, and triglycerides. The solubility of WHI-P131 is very poor in water. It was about 35 times more soluble in C8-C10 medium chain triglyceride (Captex 300) than in water. It was much more soluble in ethanol and hydrophilic cosolvents such as propylene glycol and PEGs.
Parallel solubility measurements were also carried out using WHI-P131 chloride salt. […] In contrast, the solubility of WHI-P131 chloride decreased drastically in all other liquids. […] This fact underscores the importance of knowing the solubility profile of both the free base and salt forms of an ionizable compound when making choices of its delivery vehicles.

[3] = Solubilization of WHI-P131 in water-cosolvent mixtures and micellar solutions; conditions: for Solubility: aqueous with cosolvent or surfactant or cyclodextrin
Protocol: To further determine the effect of cosolvents on the solubility behavior of WHI-P131, the solubility of WHI-P131 chloride salt was carried out in binary mixtures of water-cosolvents. Solvents including ethanol, propylene glycol, and PEGs are used in several injectable formulations, and were considered here as possible vehicles for WHI-P131. […] However, at PEG concentrations greater than 70%, there was a large difference between the solubility behavior of WHI-P131 in water-PEG300 and water-PEG200 mixtures. For PEG300, the solubility continued to increase linearly with increasing PEG concentration, whereas for PEG200, a large increase in slopes occurred near 100% PEG200. Since the solubility-PEG300 concentration curve is linear over the entire range of water-PEG300 mixtures, WHI-P131 solubilized in these mixtures at concentrations below its saturation point can be used as vehicles for this compound, since their dilution will not result in drug precipitation. […] Therefore, PEG300 is more appropriate for use as a cosolvent vehicle in the formulations of WHI-P131.
Micellar solutions containing PEGylated phosphatidylethanolamines were exceptionally effective in enhancing the solubilization of WHI-P131. […] Micellar solutions using purified soya lecithin (Phospholipon 90G) were feasible when an equal or higher amount of a nonionic surfactant (such as Cremophor EL for example) was also present. With PEGylated phospholipids, the presence of Cremophor EL was not necessary to form micellar solutions. In addition, an anionic PEGylated phosphatidylethanolamine seemed to be a better solubilizer for WHI-P131 than Phospholipon (mostly phosphotidylcholine). The enhanced solubilization observed with micellar solutions was apparently due to the charge interaction between the cationic WHI-P131 and anionic PEGylated phosphatidylethanolamine.
To determine the solubilization enhancement by different types of surfactants in a more quantitative manner, solubility-surfactant concentration curves were plotted. FIG. 2 depicts the amount of solubilized WHI-P131 chloride in a solution containing 20% of PEG300, and an increasing amount of PEG2000-DPPE. […] At low surfactant concentrations (below the CMC), the drug solubilization seems to remain unchanged, then increases linearily with surfactant concentration at higher PEG2000-DPPE concentration. […] In Table 8, the slopes of the linear portions of the plot for a series of nonionic surfactants and cosolvents were used to calculate the solubilization enhancement per unit surfactant or cosolvent concentration.
The solubilization enhancement, as represented by the amount of solubilized WHI-P131 (in milligram) per gram of surfactant, are shown in Table 8 to vary with the type of surfactants used. For the three PEGylated phosphatidylethanolamines, the solubilization enhancement depended on the hydrophobic chain length and polyoxyethylene number of the PEGylated phospholipids. […] Also shown in Table 8 for comparison purposes are the solubilization enhancements produced by the use of cosolvents.

Total solubilization enhancement [1]	Solubility in C8-C10 medium chain triglyceride (Captex 300) relative to water ([2]; Captex 300 vs water)	Solubility ([2]; Water)	Solubility ([3]; 20% PEG300 plus 3% PEG2000-DPPE micellar solution, chloride salt, 20% PEG300 plus 3% PEG2000-DPPE, read-out: Drug solubilization in cosolvent/micellar vehicle)	Solubilized WHI-P131 (mg) per gram of surfactant or solvent ([3]; PEG200, Cosolvent)	Solubilized WHI-P131 (mg) per gram of surfactant or solvent ([3]; PEG300, Cosolvent)	Solubilized WHI-P131 (mg) per gram of surfactant or solvent ([3]; PEG400, Cosolvent)	Solubilized WHI-P131 (mg) per gram of surfactant or solvent ([3]; PEG2000-PE (14:0), Micellar solution)	Solubilized WHI-P131 (mg) per gram of surfactant or solvent ([3]; PEG2000-PE (16:0), Micellar solution)	Solubilized WHI-P131 (mg) per gram of surfactant or solvent ([3]; PEG5000-PE (18:0), Micellar solution)	Solubilized WHI-P131 (mg) per gram of surfactant or solvent ([3]; Pluronic F-68, Micellar solution)	Solubility in 20% PEG300 ([3]; chloride salt, 20% PEG300, no surfactant)	Total solubilization enhancement ([3]; cosolvent/micellar solution vs free base in water)	Solubility ([2]; Captex 300)	Solubility ([2]; Ethanol)	Solubility ([2]; PEG200)	Solubility ([2]; PEG300)	Solubility ([2]; Propylene glycol)	Solubility ([2]; Water, listed as WHI-P131 salt)	Solubility ([3]; 20% PEG300 in water, chloride salt, 20% PEG300, no surfactant, read-out: Solubility in 20% PEG300)	Compound
110 fold	about 35 times	very poor	4700 µg/mL	5.3 mg per gram	5.8 mg per gram	6.2 mg per gram	76.6 mg per gram	92.0 mg per gram	37.5 mg per gram	6.1 mg per gram	2200 µg/mL	190 fold								COc1cc2ncnc(Nc3ccc(O)cc3)c2cc1OC [WHI-P131, 4-(4′-Hydroxylphenyl)-amino-6,7-dimethoxyquinazoline]
		1240 ± 90 µg/mL											12 ± 2 µg/mL	631 ± 7 µg/mL	25120 ± 720 µg/mL	10100 ± 3600 µg/mL	1610 ± 90 µg/mL	1200 µg/mL	2380 µg/mL	COc1cc2ncnc(Nc3ccc(O)cc3)c2cc1OC [WHI-P131 Chloride salt, 4-(4′-Hydroxylphenyl)-amino-6,7-dimethoxyquinazoline]
